Experimental data reported in patent US20190125790A1, “USE OF HYPOCHLOROUS ACID AS A TOPICAL ANTIMICROBIAL” (BIIOSMART TECHNOLOGIES LLC, priority 2016, published 2019).

System: S. pyogenes
Test: Antimicrobial efficacy of HOCl skin cleanser (Table 1)
Assay type: cell-based
Settings: 0.01% HOCl; 30 seconds

OCl [HOCl, hypochlorous acid]
% Reduction: 99.99%
Log Reduction: >6.12 Log10
